Experimental data taken from US20260285850A1, “SUBSTITUTED OXAZOLIDINONES AND IMIDAZOLINONES AS HERBICIDES” (FMC CORPORATION, priority 2023, published 2026).

Assays:
Format in all cases: in vivo
[1] = tested on: blackgrass (Alopecurus myosuroides); experiment: Test A preemergence soil spray, visual injury rating 0-100; conditions: 1000 g ai/ha, 10 days, 0 = no effect, 100 = complete control
Summary of the method: (§1)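 Plants were grown in a loam soil-sand blend and treated with test chemical in a non-phytotoxic solvent mixture containing surfactant, either sprayed on soil preemergence or applied postemergence to 2-10 cm plants. After 10 days in a greenhouse, injury was scored visually against untreated controls, 0 meaning no effect and 100 complete control.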

[2] = tested on: foxtail, giant (giant foxtail, Setaria faberi); experiment: as above; conditions: 1000 g ai/ha, 10 days, 0 = no effect, 100 = complete control
Summary of the method: as §1

[3] = tested on: goosegrass (Eleusine indica); experiment: as above; conditions: 1000 g ai/ha, 10 days, 0 = no effect, 100 = complete control
Summary of the method: as §1

kochia (Bassia scoparia) [4] = experiment: as above; conditions: 1000 g ai/ha, 10 days, 0 = no effect, 100 = complete control
Summary of the method: as §1

[5] = tested on: palmer (palmer amaranth, palmer pigweed, Amaranthus palmeri); experiment: as above; conditions: 1000 g ai/ha, 10 days, 0 = no effect, 100 = complete control
Summary of the method: as §1

[6] = tested on: ragweed (common ragweed, Ambrosia artemisiifolia); experiment: as above; conditions: 1000 g ai/ha, 10 days, 0 = no effect, 100 = complete control
Summary of the method: as §1

[7] = tested on: ryegrass, Italian (italian ryegrass, Lolium multiflorum); experiment: as above; conditions: 1000 g ai/ha, 10 days, 0 = no effect, 100 = complete control
Summary of the method: as §1

[8] = tested on: blackgrass (Alopecurus myosuroides); experiment: Test A postemergence application, visual injury rating 0-100; conditions: Postemergence, 1000 g ai/ha, 0 to 100 scale, 10 days
Summary of the method: as §1

[9] = tested on: foxtail, giant (giant foxtail, Setaria faberi); experiment: as above; conditions: 1000 g ai/ha, 0 to 100 scale, 10 days
Summary of the method: as §1

[10] = tested on: galium (catchweed bedstraw, Galium aparine); experiment: as above; conditions: Postemergence, 1000 g ai/ha, 0 to 100 scale, 10 days
Summary of the method: as §1

[11] = tested on: goosegrass (Eleusine indica); experiment: as above; conditions: 1000 g ai/ha, 0 to 100 scale, 10 days
Summary of the method: as §1

[12] = tested on: horseweed (Erigeron canadensis); experiment: as above; conditions: Postemergence, 1000 g ai/ha, 0 to 100 scale, 10 days
Summary of the method: as §1

kochia (Bassia scoparia) [13] = experiment: as above; conditions: Postemergence, 1000 g ai/ha, 0 to 100 scale, 10 days
Summary of the method: as §1

[14] = tested on: palmer (palmer amaranth, palmer pigweed, Amaranthus palmeri); experiment: as above; conditions: Postemergence, 1000 g ai/ha, 0 to 100 scale, 10 days
Summary of the method: as §1

[15] = tested on: ragweed (common ragweed, Ambrosia artemisiifolia); experiment: as above; conditions: Postemergence, 1000 g ai/ha, 0 to 100 scale, 10 days
Summary of the method: as §1

[16] = tested on: ryegrass, Italian (italian ryegrass, Lolium multiflorum); experiment: as above; conditions: Postemergence, 1000 g ai/ha, 0 to 100 scale, 10 days
Summary of the method: as §1

[17] = tested on: barnyardgrass (Echinochloa crusgalli); experiment: Test B flooded paddy test, visual plant response rating 0-100; conditions: 250 g ai/ha, Flood, applied to paddy water, evaluated after 13 days
Summary of the method: (§2)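 2-leaf plants; flood 3 cm over soil; compound dosed into paddy water; depth kept constant; greenhouse 13 d; visual scoring vs controls. Dash = no result.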

[18] = tested on: ducksalad (Heteranthera limosa); experiment: as above; conditions: 250 g ai/ha, Flood, applied to paddy water, evaluated after 13 days
Summary of the method: as §2

rice (Oryza sativa) = experiment: as above; conditions: 250 g ai/ha, Flood, applied to paddy water, evaluated after 13 days
Summary of the method: as §2

[19] = tested on: sedge, umbrella (small-flower umbrella sedge, Cyperus difformis); experiment: as above; conditions: 250 g ai/ha, Flood, applied to paddy water, evaluated after 13 days
Summary of the method: as §2

Row | Structure (SMILES) | Blackgrass plant response rating (0 to 100 scale) [1] | Foxtail, Giant plant response rating (0 to 100 scale) [2] | Goosegrass plant response rating (0 to 100 scale) [3] | Kochia plant response rating (0 to 100 scale) (kochia (Bassia scoparia) [4]) | Amaranth, Palmer / Pigweed, Palmer plant response rating (0 to 100 scale) [5] | Ragweed plant response rating (0 to 100 scale) [6] | Ryegrass, Italian plant response rating (0 to 100 scale) [7] | Blackgrass plant response rating [8] | Foxtail, Giant plant response rating [9] | Galium plant response rating [10] | Goosegrass plant response rating [11] | Horseweed plant response rating [12] | Kochia plant response rating (kochia (Bassia scoparia) [13]) | Amaranth, Palmer plant response rating [14] | Ragweed plant response rating [15] | Ryegrass, Italian plant response rating [16] | Plant response rating, Barnyardgrass (0 to 100 scale, 0 is no effect and 100 is complete control) [17] | Plant response rating, Ducksalad (0 to 100 scale, 0 is no effect and 100 is complete control) [18] | Plant response rating, Rice (0 to 100 scale, 0 is no effect and 100 is complete control) (rice (Oryza sativa)) | Plant response rating, Sedge, Umbrella (0 to 100 scale, 0 is no effect and 100 is complete control) [19]
1 | CNC(=O)C1C=CC(NC(=O)C2(C)CN(c3cc(F)cc(F)c3)C(=O)O2)C1 (stereo not shown) [Compound 26] | 100 | 100 | 100 | 90 | 100 | 90 | 100 | 90 | 90 | 70 | 90 | 70 | 80 | 90 | 50 | 70 | 45 | 95 | 35 | 95
2 | COC(=O)[C@@H]1C=C[C@H](NC(=O)C2(C)CN(c3cc(F)cc(F)c3)C(=O)O2)C1 (stereo partly drawn) [Compound 27, Methyl (1S,4R)-4-[[[3-(3,5-difluorophenyl)-5-methyl-2-oxo-5-oxazolidinyl]carbonyl]amino]-2-cyclopentene-1-carboxylate] |  | 100 | 100 | 100 | 100 | 50 | 100 | 90 | 90 |  | 90 | 80 | 80 | 90 | 80 | 100 | 90 | 85 | 35 | 50
3 | CCOC(=O)C1C=CC(NC(=O)C2(C)CN(c3cc(F)cc(F)c3)C(=O)O2)C1 (stereo not shown) [Compound 28] | 90 | 100 | 100 | 100 | 100 | 80 | 100 | 100 | 90 | 70 | 90 | 80 | 80 | 90 | 70 | 80 | 85 | 75 | 70 | 65
